pIC50: −log10 of the molar value.
Assays:
Rattus norvegicus [1] = experiment: Analgesic activity in ip dosed rat colonic distension model; format: functional
[2] = molecular target: Sodium channel protein type 2 subunit alpha (Homo sapiens, UniProt Q99250); experiment: Inhibition of human Nav1.2 channel expressed in HEK293 cells at -120 mV by patch clamp method; format: cell-based
[3] = molecular target: 5-hydroxytryptamine receptor 3A (Homo sapiens, UniProt P46098); experiment: Displacement of [3H]BRL43694 from 5HT3 receptor
Rattus norvegicus [4] = organism: Rattus norvegicus; experiment: Motor effect in rat by rotarod test; format: functional
[5] = Drug level in rat plasma at 10 to 100 mg/kg, ip after 45 mins; format: ADME, organism-based; parameters: dose 10-100 mg/kg, route intraperitoneal
[6] = molecular target: T1, Sodium channel protein type 5 subunit alpha (Homo sapiens, UniProt Q14524); experiment: Inhibition of human Nav1.5 channel expressed in HEK293 cells at -150 mV by patch clamp method; format: cell-based
Rattus norvegicus [7] = experiment: Analgesic activity in ip dosed rat complete Freund's adjuvant-induced thermal hyperalgesia model assessed as paw withdrawal latency after 4 days; format: functional; details: 96 h
D(2) dopamine receptor = D(2) dopamine receptor (Homo sapiens, UniProt P14416); experiment: Displacement of [3H]spiperone from dopamine D2 receptor
[8] = Cmax in rat at 10 mg/kg, po; format: ADME, organism-based; parameters: dose 10 mg/kg, route oral; details: in vivo
[9] = molecular target: 5-hydroxytryptamine receptor 1B (Homo sapiens, UniProt P28222); experiment: Displacement of [3H]CYP from 5HT1B receptor
[10] = Displacement of [3H]PACAP1-27 from PACAP PAC1 receptor
[11] = Bioavailability in rat at 10 mg/kg, ip; format: ADME, organism-based; details: in vivo
[12] = Tmax in rat at 10 mg/kg, po; format: ADME, organism-based; parameters: dose 10 mg/kg, route oral; details: in vivo
Rattus norvegicus [13] = experiment: Analgesic activity in rat carrageenan-induced […] pain model at 100 mg/kg, ip; format: functional; details: route intraperitoneal
Rattus norvegicus [14] = experiment: Analgesic activity in rat acute mechanical stimulation nociception model assessed as paw withdrawal latency at 100 mg/kg, ip; format: functional; details: route intraperitoneal
[15] = Elimination half life in iv dosed rat; format: ADME, organism-based; details: in vivo
Rattus norvegicus [16] = experiment: Motor effect in rat by rotarod test at 300 mg/kg, ip; format: functional; details: route intraperitoneal
D(4) dopamine receptor = D(4) dopamine receptor (Homo sapiens, UniProt P21917); experiment: Displacement of [3H]spiperone from dopamine D4.4 receptor
ADRB1 = ADRB1 (Homo sapiens, UniProt P08588); experiment: Displacement of [3H](-)CGP-12177 from adrenergic beta-1 receptor
[17] = molecular target: Muscarinic acetylcholine receptor M4 (Homo sapiens, UniProt P08173); experiment: Displacement of [3H]4DAMP from muscarinic M4 receptor
[18] = Volume of distribution in rat; format: ADME, organism-based; details: in vivo, read-out: Vbeta
[19] = Displacement of [3H]prazosin from adrenergic alpha-1 receptor
[20] = molecular target: Muscarinic acetylcholine receptor M2 (Homo sapiens, UniProt P08172); experiment: Displacement of [3H]AF-DX384 from muscarinic M2 receptor
P2Y purinoceptor 2 = P2Y purinoceptor 2 (Homo sapiens, UniProt P41231); experiment: Displacement of [35S]dATP-alpha-S from P2Y receptor
[21] = molecular target: Sodium channel protein type 3 subunit alpha (Homo sapiens, UniProt Q9NY46); experiment: Inhibition of human Nav1.3 channel expressed in HEK293 cells at -120 mV by patch clamp method; format: cell-based
[22] = molecular target: 5-hydroxytryptamine receptor 2A (Homo sapiens, UniProt P28223); experiment: Displacement of [3H]ketanserin from 5HT2A receptor
D(3) dopamine receptor = D(3) dopamine receptor (Homo sapiens, UniProt P35462); experiment: Displacement of [3H]spiperone from dopamine D3 receptor
[23] = molecular target: T2, Sodium channel protein type 10 subunit alpha (Rattus norvegicus, UniProt Q62968); experiment: Inhibition of Nav1.8 channel in rat dorsal root ganglion neurons assessed as blockade of TTX-R current at -100 mV by patch clamp method; format: tissue-based
D(1B) dopamine receptor = D(1B) dopamine receptor (Homo sapiens, UniProt P21918); experiment: Displacement of [3H]SCH23390 from dopamine D5 receptor
[24] = molecular target: 5-hydroxytryptamine receptor 2C (Homo sapiens, UniProt P28335); experiment: Displacement of [3H]mesulergine from 5HT2C receptor
[25] = molecular target: Muscarinic acetylcholine receptor M5 (Homo sapiens, UniProt P08912); experiment: Displacement of [3H]4DAMP from muscarinic M5 receptor
P2X purinoceptor 3 = P2X purinoceptor 3 (Homo sapiens, UniProt P56373); experiment: Inhibition of P2X3 receptor
Rattus norvegicus [26] = experiment: Antinociceptive activity in rat assessed as reduction of spontaneous firing of spinal dorsal horn wide dynamic range neurons at 20 mg/kg, iv; format: functional, Dorsal horn of spinal cord; parameters: scale not given: the % may be the effect or the level left
Rattus norvegicus [27] = experiment: Analgesic activity in rat complete Freund's adjuvant-induced mechanical hyperalgesia model assessed as paw withdrawal latency at 100 mg/kg, ip after 2 days; format: functional; details: route intraperitoneal
Mus musculus = experiment: Analgesic activity in mouse visceral pain model assessed as acetic acid induced writhing at 100 mg/kg, ip; format: functional; details: route intraperitoneal
[28] = molecular target: T3, Sodium channel protein type 10 subunit alpha (Homo sapiens, UniProt Q9Y5Y9); experiment: Inhibition of human Nav1.8 channel expressed in HEK293 cells at -100 mV by patch clamp method; format: cell-based
Rattus norvegicus [29] = experiment: Motor effect in rat assessed as latency to fall at 300 mg/kg, ip by edge balance test; format: functional; details: route intraperitoneal
Rattus norvegicus [30] = experiment: Motor effect in ip dosed rat assessed as latency to fall by edge balance test; format: functional
[31] = molecular target: T2, Sodium channel protein type 10 subunit alpha; experiment: Inhibition of recombinant rat Nav1.8 sodium channel assessed as blockade of TTXR current by patch clamp method
Rattus norvegicus [32] = organism: Rattus norvegicus; experiment: Motor effect in rat assessed as locomotory activity; format: functional
[33] = molecular target: Sodium channel protein type 9 subunit alpha (Homo sapiens, UniProt Q15858); experiment: Inhibition of human Nav1.7 channel expressed in HEK293 cells at -120 mV by patch clamp method; format: cell-based
[34] = molecular target: Potassium voltage-gated channel subfamily KQT member 2 (Homo sapiens, UniProt O43526); experiment: Inhibition of KCNQ2 channel
[35] = molecular target: Delta-type opioid receptor (Homo sapiens, UniProt P41143); experiment: Displacement of [3H]DADLE from opioid delta receptor
Histamine H1 receptor = Histamine H1 receptor (Homo sapiens, UniProt P35367); experiment: Displacement of [3H]pyrilamine from histamine H1 receptor
Rattus norvegicus [36] = experiment: Analgesic activity in rat capsaicn induced mechanical allodynia model at 300 mg/kg, ip; format: functional; details: route intraperitoneal
Rattus norvegicus [37] = experiment: Analgesic activity in rat skin incision model of post-operative pain at 100 mg/kg, ip after 24 hrs; format: functional; details: route intraperitoneal
Rattus norvegicus [38] = experiment: Analgesic activity in rat chronic constriction injury model of mechanical allodynia at 100 mg/kg, ip; format: functional; details: route intraperitoneal
Rattus norvegicus [39] = experiment: Analgesic activity in ip dosed rat vincristine-induced mechanical allodynic neuropathic pain; format: functional
Rattus norvegicus [40] = experiment: Analgesic activity in rat L5/L6 spinal nerve ligation-induced neuropathic pain model at 100 mg/kg, ip; format: functional; details: route intraperitoneal
[41] = molecular target: T1, Sodium channel protein type 5 subunit alpha; experiment: Inhibition of human Nav1.5 channel expressed in HEK293 cells at -90 mV by patch clamp method; format: cell-based
[42] = molecular target: T3, Sodium channel protein type 10 subunit alpha; experiment: Inhibition of human Nav1.8 channel expressed in human HEK293 cells by patch clamp method; format: cell-based
Rattus norvegicus [43] = experiment: Analgesic activity in rat vincristine-induced mechanical allodynic neuropathic pain at 100 mg/kg, ip; format: functional; details: route intraperitoneal
[44] = Clearance in rat plasma; format: ADME, organism-based

T2 sequence (Q62968 whole entry): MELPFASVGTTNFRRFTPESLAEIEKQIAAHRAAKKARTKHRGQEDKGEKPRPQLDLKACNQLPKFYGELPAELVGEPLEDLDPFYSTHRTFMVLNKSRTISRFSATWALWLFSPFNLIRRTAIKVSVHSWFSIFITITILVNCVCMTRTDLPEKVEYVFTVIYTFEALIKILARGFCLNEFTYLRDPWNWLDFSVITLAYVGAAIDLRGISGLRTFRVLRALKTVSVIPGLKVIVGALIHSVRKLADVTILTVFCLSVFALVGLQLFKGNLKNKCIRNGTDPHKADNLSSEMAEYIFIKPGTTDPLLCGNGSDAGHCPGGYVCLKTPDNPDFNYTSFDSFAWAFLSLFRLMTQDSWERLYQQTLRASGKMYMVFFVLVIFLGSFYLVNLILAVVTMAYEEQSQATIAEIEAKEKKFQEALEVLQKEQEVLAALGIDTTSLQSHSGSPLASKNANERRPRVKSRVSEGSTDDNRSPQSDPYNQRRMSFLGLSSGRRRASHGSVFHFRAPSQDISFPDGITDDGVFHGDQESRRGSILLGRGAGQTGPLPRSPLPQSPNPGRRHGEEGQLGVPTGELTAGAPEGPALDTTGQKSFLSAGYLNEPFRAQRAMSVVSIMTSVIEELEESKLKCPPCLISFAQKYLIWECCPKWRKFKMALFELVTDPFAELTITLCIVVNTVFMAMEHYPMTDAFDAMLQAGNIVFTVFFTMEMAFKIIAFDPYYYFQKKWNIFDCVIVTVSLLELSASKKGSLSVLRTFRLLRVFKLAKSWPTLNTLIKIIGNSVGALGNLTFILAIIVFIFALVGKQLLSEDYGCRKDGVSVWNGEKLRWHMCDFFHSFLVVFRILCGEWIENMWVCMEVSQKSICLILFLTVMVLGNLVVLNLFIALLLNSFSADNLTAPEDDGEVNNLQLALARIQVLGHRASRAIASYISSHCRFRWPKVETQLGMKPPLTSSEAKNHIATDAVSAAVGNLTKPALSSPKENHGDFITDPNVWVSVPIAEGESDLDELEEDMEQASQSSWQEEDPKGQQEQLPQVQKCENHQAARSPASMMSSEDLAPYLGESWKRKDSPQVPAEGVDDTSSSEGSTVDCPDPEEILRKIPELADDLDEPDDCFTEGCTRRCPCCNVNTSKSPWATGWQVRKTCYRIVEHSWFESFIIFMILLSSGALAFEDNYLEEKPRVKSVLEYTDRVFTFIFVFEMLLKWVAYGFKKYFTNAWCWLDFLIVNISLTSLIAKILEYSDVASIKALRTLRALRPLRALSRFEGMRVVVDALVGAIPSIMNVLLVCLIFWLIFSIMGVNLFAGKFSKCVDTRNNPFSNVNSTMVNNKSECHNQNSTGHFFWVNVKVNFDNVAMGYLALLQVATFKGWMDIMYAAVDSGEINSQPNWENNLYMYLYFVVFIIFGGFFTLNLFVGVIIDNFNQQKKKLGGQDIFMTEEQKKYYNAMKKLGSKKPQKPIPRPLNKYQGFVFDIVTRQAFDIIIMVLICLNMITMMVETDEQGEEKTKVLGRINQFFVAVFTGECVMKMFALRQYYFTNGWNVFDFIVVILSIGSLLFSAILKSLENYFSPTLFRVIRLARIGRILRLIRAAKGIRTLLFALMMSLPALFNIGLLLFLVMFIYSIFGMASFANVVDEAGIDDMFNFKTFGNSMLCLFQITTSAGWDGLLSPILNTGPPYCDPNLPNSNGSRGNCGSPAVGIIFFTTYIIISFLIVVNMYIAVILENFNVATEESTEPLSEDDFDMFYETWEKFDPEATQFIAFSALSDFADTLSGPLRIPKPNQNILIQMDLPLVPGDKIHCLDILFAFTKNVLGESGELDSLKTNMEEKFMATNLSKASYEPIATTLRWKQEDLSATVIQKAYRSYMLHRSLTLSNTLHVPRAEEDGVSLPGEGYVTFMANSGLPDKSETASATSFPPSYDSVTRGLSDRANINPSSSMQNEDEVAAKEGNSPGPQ
T1 sequence (Q14524 whole entry): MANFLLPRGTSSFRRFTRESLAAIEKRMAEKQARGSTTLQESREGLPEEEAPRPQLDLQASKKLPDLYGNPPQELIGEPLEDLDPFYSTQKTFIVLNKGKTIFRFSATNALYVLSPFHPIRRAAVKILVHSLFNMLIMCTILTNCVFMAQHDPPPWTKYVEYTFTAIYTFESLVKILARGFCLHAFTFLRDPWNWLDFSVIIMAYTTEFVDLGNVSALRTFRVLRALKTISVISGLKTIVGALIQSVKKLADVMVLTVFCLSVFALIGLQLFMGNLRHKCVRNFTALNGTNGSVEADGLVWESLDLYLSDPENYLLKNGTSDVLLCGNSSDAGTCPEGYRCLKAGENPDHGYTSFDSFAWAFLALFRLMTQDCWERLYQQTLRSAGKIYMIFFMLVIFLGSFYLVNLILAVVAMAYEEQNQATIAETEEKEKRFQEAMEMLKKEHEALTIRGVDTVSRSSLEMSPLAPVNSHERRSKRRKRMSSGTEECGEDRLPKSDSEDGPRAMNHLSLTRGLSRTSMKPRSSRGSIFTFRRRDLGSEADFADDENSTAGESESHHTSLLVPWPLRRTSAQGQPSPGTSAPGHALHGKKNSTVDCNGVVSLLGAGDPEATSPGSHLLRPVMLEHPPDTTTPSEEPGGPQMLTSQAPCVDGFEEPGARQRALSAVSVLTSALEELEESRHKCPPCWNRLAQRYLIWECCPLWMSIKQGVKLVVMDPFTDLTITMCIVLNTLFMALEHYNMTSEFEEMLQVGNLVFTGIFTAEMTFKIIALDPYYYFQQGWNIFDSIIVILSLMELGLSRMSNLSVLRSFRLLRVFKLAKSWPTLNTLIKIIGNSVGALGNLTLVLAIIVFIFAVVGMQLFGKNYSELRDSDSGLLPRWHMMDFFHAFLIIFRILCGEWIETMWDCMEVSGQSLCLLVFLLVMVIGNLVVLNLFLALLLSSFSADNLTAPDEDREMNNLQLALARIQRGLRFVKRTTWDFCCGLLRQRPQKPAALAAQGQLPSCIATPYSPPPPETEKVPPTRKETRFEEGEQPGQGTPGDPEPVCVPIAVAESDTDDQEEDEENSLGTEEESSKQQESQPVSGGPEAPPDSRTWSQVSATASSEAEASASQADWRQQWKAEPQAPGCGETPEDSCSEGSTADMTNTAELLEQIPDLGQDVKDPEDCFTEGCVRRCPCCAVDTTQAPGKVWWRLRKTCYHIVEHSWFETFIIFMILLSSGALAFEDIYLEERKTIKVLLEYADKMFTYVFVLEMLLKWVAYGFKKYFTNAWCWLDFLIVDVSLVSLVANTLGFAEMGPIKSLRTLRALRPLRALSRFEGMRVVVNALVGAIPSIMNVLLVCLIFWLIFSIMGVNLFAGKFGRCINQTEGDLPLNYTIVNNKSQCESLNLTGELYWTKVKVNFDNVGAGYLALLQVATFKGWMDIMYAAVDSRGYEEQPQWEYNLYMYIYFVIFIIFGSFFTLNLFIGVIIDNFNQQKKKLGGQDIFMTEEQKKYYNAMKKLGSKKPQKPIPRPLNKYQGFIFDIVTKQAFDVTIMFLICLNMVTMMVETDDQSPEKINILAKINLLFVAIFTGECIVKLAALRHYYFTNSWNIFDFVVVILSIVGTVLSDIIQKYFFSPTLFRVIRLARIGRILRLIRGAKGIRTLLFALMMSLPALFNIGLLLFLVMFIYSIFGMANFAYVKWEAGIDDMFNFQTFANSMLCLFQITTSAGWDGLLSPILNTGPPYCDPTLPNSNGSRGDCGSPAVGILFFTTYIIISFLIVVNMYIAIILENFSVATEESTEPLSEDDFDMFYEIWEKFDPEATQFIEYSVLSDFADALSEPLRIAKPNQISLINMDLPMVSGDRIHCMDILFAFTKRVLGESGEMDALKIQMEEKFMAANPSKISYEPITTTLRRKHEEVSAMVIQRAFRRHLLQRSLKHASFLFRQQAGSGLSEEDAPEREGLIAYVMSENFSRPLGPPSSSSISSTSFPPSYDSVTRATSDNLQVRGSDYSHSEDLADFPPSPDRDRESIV
Sequence of D(1B) dopamine receptor (P21918 whole entry): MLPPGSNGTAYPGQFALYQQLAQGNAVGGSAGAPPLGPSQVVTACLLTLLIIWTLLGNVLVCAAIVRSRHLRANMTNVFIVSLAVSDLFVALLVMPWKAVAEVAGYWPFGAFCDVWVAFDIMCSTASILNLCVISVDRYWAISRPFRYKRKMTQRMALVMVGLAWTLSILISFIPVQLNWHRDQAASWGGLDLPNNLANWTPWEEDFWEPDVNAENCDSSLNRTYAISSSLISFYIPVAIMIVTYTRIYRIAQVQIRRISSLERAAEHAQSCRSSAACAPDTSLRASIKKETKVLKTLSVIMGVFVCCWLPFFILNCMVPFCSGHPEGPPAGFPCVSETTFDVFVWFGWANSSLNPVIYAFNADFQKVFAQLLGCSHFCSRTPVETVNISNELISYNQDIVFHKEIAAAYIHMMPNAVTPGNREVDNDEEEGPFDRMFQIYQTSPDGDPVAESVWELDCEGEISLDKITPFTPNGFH
Sequence of Histamine H1 receptor (P35367 whole entry): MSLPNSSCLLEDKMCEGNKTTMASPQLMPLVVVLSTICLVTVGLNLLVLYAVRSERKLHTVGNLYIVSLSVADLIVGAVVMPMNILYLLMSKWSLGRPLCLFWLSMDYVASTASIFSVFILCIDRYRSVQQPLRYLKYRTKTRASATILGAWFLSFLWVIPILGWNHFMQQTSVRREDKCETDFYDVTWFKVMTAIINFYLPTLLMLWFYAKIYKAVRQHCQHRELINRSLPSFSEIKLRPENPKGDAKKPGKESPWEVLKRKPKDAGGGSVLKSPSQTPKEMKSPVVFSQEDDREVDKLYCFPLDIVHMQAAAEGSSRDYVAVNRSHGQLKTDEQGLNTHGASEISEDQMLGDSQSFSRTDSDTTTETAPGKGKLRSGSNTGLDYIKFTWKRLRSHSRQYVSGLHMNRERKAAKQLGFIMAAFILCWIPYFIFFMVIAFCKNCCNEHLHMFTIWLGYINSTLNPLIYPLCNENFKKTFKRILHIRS

pIC50 [2]: 5.02
pIC50 [3]: < 5.00
concentration at 0.75 h [5]: 400 ng/mL
pIC50 (D(2) dopamine receptor): < 5.00
Cmax [8]: 190 ng/mL
pIC50 [9]: < 5.00
pIC50 [10]: < 5.00
bioavailability [11]: 26%
Tmax [12]: 1.5 h
half-life [15]: 4.9 h
pIC50 (D(4) dopamine receptor): < 5.00
pIC50 (ADRB1): < 5.00
pIC50 [17]: < 5.00
Vd [18]: 11.5 L/kg
pIC50 [19]: < 5.00
pIC50 [20]: < 5.00
pIC50 (P2Y purinoceptor 2): < 5.00
pIC50 [21]: 4.93
pIC50 [22]: 5.52
pIC50 (D(3) dopamine receptor): < 5.00
pIC50 [23]: 6.00
pIC50 (D(1B) dopamine receptor): < 5.00
pIC50 [24]: < 5.00
pIC50 [25]: < 5.00
pIC50 (P2X purinoceptor 3): < 5.00
pIC50 [28]: 7.10
pIC50 [31]: 7.35
pIC50 [33]: 4.45
pIC50 [34]: < 5.00
pIC50 [35]: < 5.00
pIC50 (Histamine H1 receptor): < 5.00
pIC50 [42]: 8.10
clearance [44]: 25 mL/min/kg
SMILES: COc1cc(NC(=O)c2ccc(-c3ccc(Cl)cc3)o2)cc(OC)c1
ED50 (Rattus norvegicus [1]): > 100 mg/kg
ED50 (Rattus norvegicus [4]): > 300 mg/kg
pIC50 [6]: 4.48
ED50 (Rattus norvegicus [7]): 100 mg/kg
Activity (Rattus norvegicus [13]): 54%
Activity (Rattus norvegicus [14]): 70%
Activity (Rattus norvegicus [16]): 0%
Activity (Rattus norvegicus [26]): 66%
Activity (Rattus norvegicus [27]): 34%
Activity (Mus musculus): 34%
Activity (Rattus norvegicus [29]): 0%
ED50 (Rattus norvegicus [30]): > 300 mg/kg
ED50 (Rattus norvegicus [32]): > 300 mg/kg
Activity (Rattus norvegicus [36]): 46%
Activity (Rattus norvegicus [37]): 32%
Activity (Rattus norvegicus [38]): 56%
ED50 (Rattus norvegicus [39]): > 100 mg/kg
Activity (Rattus norvegicus [40]): 70%
pIC50 [41]: 5.13
Activity (Rattus norvegicus [43]): 9%

Reference: ChEMBL document CHEMBL1142222, “A-803467, a potent and selective Nav1.8 sodium channel blocker, attenuates neuropathic and inflammatory pain in the rat” (Proc Natl Acad Sci U S A, 2007)
